Entries after “also recorded” stand apart in the source; their conditions may differ. Read-outs that look alike come from different tables or passages of the source.
Assays:
[1] = tested on: EBOV (Zaire); test: microbe, parasite or virus in culture; type: cell-based, Ebola virus
[2] = WST-1 cellular metabolism measurement for the five prazoles (CC50); type: cell-based; conditions: human, 293 T cells, 50% metabolic activity of control, WST reagent, read-out: Cytotoxicity (CC50)
[3] = tested on: pseudotyped virus using the EBOV Env (G) protein; conditions: cited from earlier work
[4] = tested on: HIV-1; test: microbe, parasite or virus in culture; type: cell-based; conditions: for EC50: Human immunodeficiency virus 1, HEK-293T
[5] = Prazole degradation rate: prodrug remaining in pH 5.8 buffer by 1D proton NMR; conditions: for prodrug remaining at 17 hours: 1D proton NMR
[6] = biological target: T1, Tsg101 UEV domain (Homo sapiens, UniProt Q99816); test: NMR chemical shift perturbations of Tsg101 UEV domain complexed with prazoles; type: binding; conditions: 15N-Tsg101 UEV, pH 5.8, 300 K
T1 construct: purified ^15N-labeled Tsg101 UEV domain protein complexed to various prazoles; made in house
T1 sequence (Q99816 2-145 limits assumed): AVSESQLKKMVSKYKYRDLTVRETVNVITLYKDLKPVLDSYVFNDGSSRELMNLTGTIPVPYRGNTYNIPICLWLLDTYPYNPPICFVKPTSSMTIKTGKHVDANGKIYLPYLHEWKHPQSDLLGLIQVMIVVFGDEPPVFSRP

[7] = in vitro; conditions: human
[8] = tested on: DENV 2 strain 16681; type: cell-based, Dengue virus type 2
[9] = tested on: MAYV TRVL 15537; type: cell-based, Mayaro virus
[10] = tested on: HIV-1 P7L-Gag (disrupted PTAP motif); type: cell-based
[11] = in vitro; conditions: human; remark: listed apart in the source
[12] = tested on: Mahoney strain of poliovirus; type: cell-based, Poliovirus Type I Mahoney; conditions: 293 T cells, up to 100 μM, plaque assay
[13] = tested on: ZIKV PRVABC59; type: cell-based, Zika virus
[14] = tested on: CLIX-FZ cells; test: WST-1 metabolic activity of CLIX-FZ cells; type: cell-based; conditions: 40 μM concentration range, WST-1, 24 hr
Description: Figure 4 EBV replication is tenatoprazole-sensitive. Latent EBV was reactivated in CLIX-FZ cells by addition of doxycycline in the presence of DMSO (black bars) or DMSO plus tenatoprazole (20 µM or 40 µM, grey bars); non-treated cells are shown as white bars. After 72 hr, cells and conditioned media were harvested. Panel A, extracellular EBV DNA measured in pellet fraction of conditioned media. Panel B, intracellular EBV DNA measured in lysed cells. EBV DNA was determined by quantitative-PCR (qPCR) for the EBV BALF5 gene. EBV DNA copy number from each preparation was normalized to the DMSO-treated control. Panel C, metabolic activity of cells in the presence of tenatoprazole. The cells were grown for 24 hr in media containing the indicated concentrations of doxycycline and tenatoprazole followed by assessment of metabolic activity assessed using the WST-1 assay. Panel D, fractionation of intracellular DNA. […] DNA was extracted from each fraction and the relative number of EBV genomes from each fraction was determined by qPCR using primers directed towards the EBV BALF5 gene. […]
Metabolic activity of the cells in the presence of the prazole drugs for 24 hr was assessed using the WST-1 assay (Roche Applied Science) following the manufacturer's protocol.

[15] = in vitro; conditions: human; remark: listed apart in the source
[16] = tested on: EBV; type: cell-based, Epstein Barr virus; conditions: CLIX-FZ; for Virus Production (resistant or susceptible), EBV: BALF5
[17] = tested on: HIV-1 Gag-HA VLP; type: cell-based
[18] = read-out: Approximate Effective Concentration (EC50)
[19] = read-out: EC50, inhibition of HIV-1 production
[20] = doxycycline, 20 µM and 40 μM, 72 hr, qPCR

Question: For COc1ccc2nc([S@@+]([O-])Cc3ncc(C)c(OC)c3C)[nH]c2c1 [Esomeprazole, Esomeprazole magnesium hydrate], which “inhibitory effect on EBOV” value [1] is on record?
Answer: Its value is “no significant inhibitory effect”.

Question: And the CC50 at 24 h [2]?
Answer: Its CC50 at 24 h is 75 µM.

Question: And the EC50 [3]?
Answer: Its EC50 is 50 µM.

Question: What about the “Selectivity Index (CC50/EC50)” value [4] of the same compound?
Answer: Its value is 1.0.

Question: And the EC50 [4, 18]?
Answer: Its EC50 is 75 µM.

Question: What about the EC50 [4, 19] of the same compound?
Answer: The EC50 was about 75 µM.

Question: What about the “prodrug remaining at 17 hours” value ([5]; 2 mM prazole, 300 K) of the same compound?
Answer: The value was ~ 55%.

Question: For COc1ccc2[nH]c([S+]([O-])Cc3ncc(C)c(OC)c3C)nc2n1 (stereo not shown) [Tenatoprazole, tenatoprazole], which “Selectivity index (CC50/EC50), EBOV” value [1] is on record?
Answer: Its value is “Susceptible (1.6)”.

Question: What about the EC50 ([1]; Zaire ebolavirus, HeLa, 24 h, read-out: EC50, inhibition of EBOV spread) of the same compound?
Answer: The EC50 was 80 µM.

Question: And the “chemical shift change of backbone amide of S41” value [6]?
Answer: The value was 0.29 ppm.

Question: And the CC50 at 24 h [2]?
Answer: Its CC50 at 24 h is 125 µM.

Question: And the CC50 [7]?
Answer: Its CC50 is 129 µM.

Question: And the “DENV replication, tenatoprazole susceptibility” value [8]?
Answer: The value was “no tenatoprazole susceptibility”.

Question: What about the “Virus Production (resistant or susceptible), DENV” value ([8]; 293 T, infectivity, FFU) of the same compound?
Answer: The value was “Resistant”.

Question: And the “Virus Production (resistant or susceptible), MAYV” value [9]?
Answer: Its value is “sensitive; also recorded: Susceptible (2.5)”.

Question: What about the “reduction of MAYV titer” value [9] of the same compound?
Answer: The value was over 2 log10.

Question: And the “Selectivity index (CC50/EC50), MAYV” value ([9]; 293 T)?
Answer: Its value is “Susceptible (2.5)”.

Question: And the “Alix rescue of P7L-Gag release in presence of tenatoprazole” value ([10]; 293T, concentration range to which the WT is susceptible)?
Answer: Its value is 2–3 fold.

Question: What about the “Alix-mediated stimulation of p25 to p24 maturation” value ([10]; in the presence or absence of the drug) of the same compound?
Answer: Its value is ~ 3 fold.

Question: And the viability at 80 µM [11]?
Answer: The viability at 80 µM was over 80%.

Question: And the PV tenatoprazole susceptibility [12]?
Answer: The PV tenatoprazole susceptibility was “no tenatoprazole susceptibility”.

Question: And the “reduction in ZIKV infectious virus output” value [13]?
Answer: The value was under 2 fold.

Question: What about the “Virus Production (resistant or susceptible), ZIKV” value ([13]; 293 T, infectivity, PFU) of the same compound?
Answer: Its value is “Resistant”.

Question: What about the “metabolic capacity of host CLIX-FZ cells” value [14] of the same compound?
Answer: The value was “some impairment of metabolic capacity”.

Question: And the “Virus Production (resistant or susceptible), HIV-1” value [4]?
Answer: The value was “sensitive”.

Question: What about the “Selectivity Index (CC50/EC50)” value ([4]; HIV-1, Table 3) of the same compound?
Answer: Its value is 2.5.

Question: And the EC50 [4, 18]?
Answer: The EC50 was 50 µM.

Question: What about the EC50 [4, 19] of the same compound?
Answer: The EC50 was about 50 µM.

Question: What about the CC50 [15] of the same compound?
Answer: The CC50 was 123 µM.

Question: What about the “prodrug remaining at 17 hours” value ([5]; 2 mM prazole, 300 K) of the same compound?
Answer: The value was ~ 5%.

Question: What about the “Selectivity index (CC50/EC50), EBV” value [16] of the same compound?
Answer: Its value is about 4.

Question: And the “intracellular EBV load” value [16, 20]?
Answer: The value was “increased”.

Question: What about the “number of released (extracellular) EBV particles” value [16, 20] of the same compound?
Answer: Its value is “dose-dependent reduction”.

Question: And the “Virus Production (resistant or susceptible), EBV” value ([16]; qPCR)?
Answer: The value was “Susceptible”.

Question: What about the “Virus Production (resistant or susceptible), EBV” value ([16]; qPCR, listed as tenatoprazole) of the same compound?
Answer: Its value is “sensitive”.

Question: And the “Gag accumulation in cell lysate” value [17]?
Answer: Its value is “drug concentration-dependent decline in Gag accumulation”.

Question: What about the VLP production [17] of the same compound?
Answer: The VLP production was “dose-dependent inhibition of VLP production”.

Question: And the VLP release efficiency [17]?
Answer: The VLP release efficiency was “no change”.

Question: Which results are given for Cc1c(OCC(F)(F)F)ccnc1C[S+]([O-])c1nc2ccccc2[nH]1 (stereo not shown) [Lansoprazole, lansoprazole]?
Answer: CC50 at 24 h [2]: 50 µM; Selectivity Index (CC50/EC50) ([4]; HIV-1, Table 3): 2.0; EC50 [4, 18]: 25 µM; EC50 [4, 19]: ~25 µM; prodrug remaining at 17 hours ([5]; 2 mM prazole, 300 K): 20%

Question: With COCCCOc1ccnc(C[S+]([O-])c2nc3ccccc3[nH]2)c1C (stereo not shown) [Rabeprazole, rabeprazole sodium] as the compound, how does the CC50 at 24 h [2] read?
Answer: The CC50 at 24 h was 150 µM.

Question: What about the “inhibition of HIV-1 production (in words)” value [4] of the same compound?
Answer: The value was “strongest inhibitory effect”.

Question: What about the “Selectivity Index (CC50/EC50)” value ([4]; HIV-1, Table 3) of the same compound?
Answer: Its value is 10.

Question: And the EC50 [4, 18]?
Answer: The EC50 was 15 µM.

Question: What about the EC50 [4, 19] of the same compound?
Answer: The EC50 was about 15 µM.

Question: And the “time course of prodrug disappearance” value ([5]; 2 mM prazole, 300 K)?
Answer: The value was “completely disappearing in less than ten hours”.

Question: Which “conversion rate, dexlansoprazole compared with lansoprazole” value ([5]; Supplemental Fig. 3A) does the source give for Cc1c(OCC(F)(F)F)ccnc1C[S@@+]([O-])c1nc2ccccc2[nH]1 [dexlansoprazole] here?
Answer: Its value is “no significant difference in rates”.

Question: Which results are given for COc1ccnc(C[S+]([O-])c2nc3ccc(OC(F)F)cc3[nH]2)c1OC (stereo not shown) [Pantoprazole, pantoprazole sodium hydrate]?
Answer: CC50 at 24 h [2]: 40 µM; inhibition of HIV-1 production (in words) [4]: negligible inhibitory activity; Selectivity Index (CC50/EC50) ([4]; HIV-1, Table 3): <0.5; EC50 [4, 18]: > 75 µM; prodrug remaining at 17 hours ([5]; 2 mM prazole, 300 K): 96%

Source: article PMC7055211 (Scientific Reports, 2020)
